Blank lines part the entries; values can stand above or below the molecule they belong to.
Experiments:
[1] = target: T1, ATP-binding cassette sub-family C member 2 (Homo sapiens, UniProt Q92887); assay: TP_TRANSPORTER: intracellular accumulation in MRP2-expressing LLC PK1 cells; type: functional, cell-based; details: pig
[2] = target: T1, ATP-binding cassette sub-family C member 2; assay: TP_TRANSPORTER: increase in Vincristine intracellular accumulation (Vincristine: 1 uM, PSC-833: 10 uM) in MRP2-expressing LLC PK1 cells; type: functional, cell-based; details: pig, llc-pk1, 10 µM
[3] = target: T1, ATP-binding cassette sub-family C member 2; assay: TP_TRANSPORTER: inhibition of LTC4 uptake in membrane vesicles from MRP2-expressing LLC PK1 cells; type: functional, cell membranes, Membrane vesicle
[4] = target: T1, ATP-binding cassette sub-family C member 2; assay: TP_TRANSPORTER: increase in Vincristine intracellular accumulation (Vincristine: 1 uM, PAK-104P: 10 uM) in MRP2-expressing LLC PK1 cells; type: functional, cell-based; details: pig, llc-pk1, 10 µM
[5] = target: T1, ATP-binding cassette sub-family C member 2; assay: (§1) TP_TRANSPORTER: uptake in membrane vesicles from MRP2-expressing LLC PK1 cells; type: functional, cell membranes, Membrane vesicle; details: pig
[6] = target: T1, ATP-binding cassette sub-family C member 2; assay: TP_TRANSPORTER: increase in Vincristine intracellular accumulation (Vincristine: 1 uM, MK571: 10 uM) in MRP2-expressing LLC PK1 cells; type: functional, cell-based; details: pig, llc-pk1, 10 µM
[7] = substrate: CCCCC/C=C\C\C=C/C=C/C=C/[C@@H](SC[C@@H](NC(=O)CC[C@H](N)C(=O)O)C(=O)NCC(=O)O)[C@@H](O)CCCC(=O)O; assay: as §1; type: functional, cell membranes, Membrane vesicle

Activity [1]: substrate [+]
Molecule: CC[C@]1(O)C[C@H]2CN(CCc3c([nH]c4ccccc34)[C@@](C(=O)OC)(c3cc4c(cc3OC)N(C=O)[C@H]3[C@@](O)(C(=O)OC)[C@H](OC(C)=O)[C@]5(CC)C=CCN6CC[C@]43[C@@H]65)C2)C1 [VINCRISTINE]

Molecule: C/C=C/C[C@@H](C)C(=O)[C@H]1C(=O)N[C@@H](C(C)C)C(=O)N(C)CC(=O)N(C)[C@@H](CC(C)C)C(=O)N[C@@H](C(C)C)C(=O)N(C)[C@@H](CC(C)C)C(=O)N[C@@H](C)C(=O)N[C@H](C)C(=O)N(C)[C@@H](CC(C)C)C(=O)N(C)[C@@H](CC(C)C)C(=O)N(C)[C@@H](C(C)C)C(=O)N1C [VALSPODAR]
Activity [2]: inhibitor [+]
Ki [3]: 28.9 µM

Activity [4]: inhibitor [+]
Ki [3]: 3.7 µM
Molecule: Cc1nc(C)c(P2(=O)O[C@H](C)C[C@@H](C)O2)c(-c2cccc([N+](=O)[O-])c2)c1C(=O)OCCN1CCN(C(c2ccccc2)c2ccccc2)CC1 (some centres undefined)

Molecule: N[C@@H](CCC(=O)N[C@H](CSc1ccc([N+](=O)[O-])cc1[N+](=O)[O-])C(=O)NCC(=O)O)C(=O)O
Activity [5]: substrate [+]

Molecule: CN(C)C(=O)CCSC(SCCC(=O)O)c1cccc(/C=C/c2ccc3ccc(Cl)cc3n2)c1 (centres undefined) [MK-571]
Activity [6]: inhibitor [+]
Ki [3]: 13.1 µM

B1: ATP-binding cassette sub-family C member 2 (Homo sapiens) (protein)
chain: MLEKFCNSTFWNSSFLDSPEADLPLCFEQTVLVWIPLGYLWLLAPWQLLHVYKSRTKRSSTTKLYLAKQVFVGFLLILAAIELALVLTEDSGQATVPAVRYTNPSLYLGTWLLVLLIQYSRQWCVQKNSWFLSLFWILSILCGTFQFQTLIRTLLQGDNSNLAYSCLFFISYGFQILILIFSAFSENNESSNNPSSIASFLSSITYSWYDSIILKGYKRPLTLEDVWEVDEEMKTKTLVSKFETHMKRELQKARRALQRRQEKSSQQNSGARLPGLNKNQSQSQDALVLEDVEKKKKKSGTKKDVPKSWLMKALFKTFYMVLLKSFLLKLVNDIFTFVSPQLLKLLISFASDRDTYLWIGYLCAILLFTAALIQSFCLQCYFQLCFKLGVKVRTAIMASVYKKALTLSNLARKEYTVGETVNLMSVDAQKLMDVTNFMHMLWSSVLQIVLSIFFLWRELGPSVLAGVGVMVLVIPINAILSTKSKTIQVKNMKNKDKRLKIMNEILSGIKILKYFAWEPSFRDQVQNLRKKELKNLLAFSQLQCVVIFVFQLTPVLVSVVTFSVYVLVDSNNILDAQKAFTSITLFNILRFPLSMLPMMISSMLQASVSTERLEKYLGGDDLDTSAIRHDCNFDKAMQFSEASFTWEHDSEATVRDVNLDIMAGQLVAVIGPVGSGKSSLISAMLGEMENVHGHITIKGTTAYVPQQSWIQNGTIKDNILFGTEFNEKRYQQVLEACALLPDLEMLPGGDLAEIGEKGINLSGGQKQRISLARATYQNLDIYLLDDPLSAVDAHVGKHIFNKVLGPNGLLKGKTRLLVTHSMHFLPQVDEIVVLGNGTIVEKGSYSALLAKKGEFAKNLKTFLRHTGPEEEATVHDGSEEEDDDYGLISSVEEIPEDAASITMRRENSFRRTLSRSSRSNGRHLKSLRNSLKTRNVNSLKEDEELVKGQKLIKKEFIETGKVKFSIYLEYLQAIGLFSIFFIILAFVMNSVAFIGSNLWLSAWTSDSKIFNSTDYPASQRDMRVGVYGALGLAQGIFVFIAHFWSAFGFVHASNILHKQLLNNILRAPMRFFDTTPTGRIVNRFAGDISTVDDTLPQSLRSWITCFLGIISTLVMICMATPVFTIIVIPLGIIYVSVQMFYVSTSRQLRRLDSVTRSPIYSHFSETVSGLPVIRAFEHQQRFLKHNEVRIDTNQKCVFSWITSNRWLAIRLELVGNLTVFFSALMMVIYRDTLSGDTVGFVLSNALNITQTLNWLVRMTSEIETNIVAVERITEYTKVENEAPWVTDKRPPPDWPSKGKIQFNNYQVRYRPELDLVLRGITCDIGSMEKIGVVGRTGAGKSSLTNCLFRILEAAGGQIIIDGVDIASIGLHDLREKLTIIPQDPILFSGSLRMNLDPFNNYSDEEIWKALELAHLKSFVASLQLGLSHEVTEAGGNLSIGQRQLLCLGRALLRKSKILVLDEATAAVDLETDNLIQTTIQNEFAHCTVITIAHRLHTIMDSDKVMVLDNGKIIECGSPEELLQIPGPFYFMAKEAGIENVNSTKF
Km [7]: 0.26 µM

Reference: ChEMBL document CHEMBL2073997, “Effect of multidrug resistance-reversing agents on transporting activity of human canalicular multispecific organic anion transporter” (Mol Pharmacol, 1999)
